Values of other authors as cited in paper PMC5845353, “The selective cathepsin K inhibitor MIV-711 attenuates joint pathology in experimental animal models of osteoarthritis” (Journal of Translational Medicine, 2018).

Tested on: HP-1
Parameters: method as in PMID 22484689
Conditions: ACLT rabbits; cited from earlier work

SMILES: CN1CCN(c2nc(-c3ccc(C(=O)NC4(C(=O)NCC#N)CCCCC4)cc3)cs2)CC1 [L-006235]
- reduction of HP-1 at dose sufficient for protection of bone loss: 60%
